Results as given in article PMC9861623, “New Ferulic Acid and Amino Acid Derivatives with Increased Cosmeceutical and Pharmaceutical Potential” (Pharmaceutics, 2022).

Columns and labels:
[1] = test system: L929 cells; design: method as in PMID 32485864; conditions: L929, 24 h, highest tested concentration of 2.5–40 mg L^−1, Trypan blue; cited from earlier work
[2] = Skin permeation in Franz diffusion cells; format: in vitro ADME, pig; conditions: 24 h, 10 mg as FA applied
Procedure: In the experiment, abdominal porcine skin coming from the local slaughterhouse was used. Pig skin was chosen because of its similar permeability to human skin [34, 35]. The fresh abdominal porcine skin was washed several times in PBS buffer pH 7.4. The skin of 0.5 mm in thickness was dermatomed and divided into 2 cm × 2 cm pieces. The skin samples were wrapped in aluminum foil and stored at −20 °C until use, not longer than 3 months. According to Badran et al., this storage time at this temperature is safe to keep skin barrier properties. Immediately before the experiment, the skin samples were slowly thawed at room temperature for 30 min and then were hydrated by PBS pH 7.4 [37, 38, 39, 40]. Such prepared skin was mounted on donor chamber. Only the undamaged skin pieces with an even thickness were chosen for experiments. The integrity of the skin was checked by impedance measurement using an LCRmeter4080 (Conrad Electronic, Hirschau, Germany), operated in parallel mode at an alternating frequency of 120 Hz (error at kΩ values < 0.5%). The tips of measuring probes were immersed in the donor and acceptor chamber containing PBS (pH 7.4), as described previously. Only skin samples of impedance > 3 kΩ were applied as such impedance is similar to the electrical resistance of human skin [42].
The concentration of FA and its derivatives in the acceptor fluid and in the fluid obtained by skin extraction after permeation experiment was assessed using liquid chromatography system (Knauer, Berlin, Germany) consisting of a model 2600 UV detector, Smartline model 1050 pump and Smartline model 3950 autosampler. HPLC was controlled by ClarityChrom 2009 software. The detector was operated at 280 nm. The separations were performed on 125 mm × 4 mm ID chromatographic column filled with Hyperisil ODS (C18), particle size 5 µm, in isocratic mode. The mobile phase consisted of acetonitrile, 1% acetic acid, and MeOH (47/47/6 v/v/v) and was pumped at flow rate of 1 mL min^−1. The column temperature was set at 25 °C, and the injection volume was 20 µL.
The permeation experiments were performed using Franz diffusion cells (Phoenix DB-6, ABL&E-JASCO, Wien, Austria). The diffusion was 1 cm^2. The volume of the acceptor chamber was 8 mL. This chamber was filled with PBS solution (pH 7.4). During experiment, a constant temperature of 37.0 ± 0.5 °C was maintained in each diffusion unit. The acceptor chamber content was stirred with a magnetic stirring bar at the same speed for all cells. The prepared pig skin was mounted on each donor chamber. As previously mentioned, only undamaged skin pieces with an even thickness were chosen for experiments. Thereafter, the hydrogel or emulsion vehicle/preparation in 1 g portion was put on the skin in donor cells. For comparison, 1 mL ethanolic solution containing either FA or its derivatives was applied to another donor chamber. The amount of the FA and its derivatives applied on the skin expressed as the mass of ferulic acid was 0.01 g and was the same for each carrier. The penetration experiments were carried out for 24 h. The samples were collected after 1 h, 2 h, 3 h, 4 h, 5 h, 6 h, 8 h, and 24 h. Aliquots of the acceptor fluid (0.5 mL) were withdrawn and to each acceptor chamber the same volume of fresh PBS solution was added. The FA and its derivatives’ concentrations in the acceptor fluid were measured by HPLC method (Section 2.6.2). The cumulative mass (µg·cm^−2) and penetration rate (µg·cm^−2·h^−1) were calculated. The acceptor fluid collected after 24 h of permeation was also measured for antioxidant activity and total polyphenol content (as described in Section 2.5.1 and Section 2.5.2).

[3] = test system: NRK-52E cells; design: method as in doi:10.1016/j.jddst.2022.103621; conditions: 75 μM, high glucose environment; cited from earlier work
[4] = test system: fibroblasts; design: method as in doi:10.3390/pr9071204; conditions: fibroblasts after UVB irradiation, increased from 9.92%; cited from earlier work
[5] = test system: NIH-3T3 cells; design: method as in PMID 29077251; conditions: NIH-3T3, 500 μg mL^−1; cited from earlier work

For `COc1cc(/C=C/C(=O)O)ccc1O` [Ferulic acid], the cell viability [1] is listed as 80%, the “Cumulative Permeation Mass” value ([2]; from emulsion) is listed as 104.93 ± 7.63 a µg FA·cm^−2 and the “Cumulative Permeation Mass” value ([2]; from hydrogel) is listed as 289.36 ± 38.50 a µg FA·cm^−2. The “Cumulative Permeation Mass” value ([2]; from solution in 70% (v/v) ethanol) was 368.57 ± 2.94 a µg FA·cm^−2, the “effect in cultured NRK-52E cells” value [3] was “countered excessive ROS generation, induced autophagy, and inhibited apoptotic death of cells” and the “percentage of viable cells” value [4] was 46.02%. The “toxicity on normal cells” value [5] was “did not cause any toxicity”.
